Data: patent publication US20210171564A1, “COMPOSITIONS AND METHODS FOR THE TREATMENT OF CANCER” (Cellix Bio Private Limited, priority 2018, published 2021)
Where “and” joins values, the source holds several entries; their conditions need not be identical. Equal entries are not always repeated. Entries after “also recorded” stand apart in the source; their conditions may differ.

Legend:
[1] = system: HCT116 human colon cancer xenograft; experiment: Anti-tumor efficacy in HCT-116 xenograft model in Foxn1 nude mice (tumor growth inhibition); assay type: in vivo, Foxn1 athymic nude female mice; details: for % Tumor Growth Inhibition (% TGI): oral; for tumor growth inhibition: day not given
Description: Evaluation of Anti-Tumor Efficacy of Test Compound (CLX-Syn-G155A-C03) in HCT-116 Xenograft Model in Fox N1 Nude Mice:
(§1) The purpose of this study was to evaluate the anti-tumor activity of test compound administered by oral gavage, for a period of 17 days in HCT116 human colon cancer xenograft bearing Foxn1 athymic nude mice. The anti-tumor activity of test compound was compared with capecitabine. Foxn1 athymic nude female mice (7-8 weeks) were implanted with human colon cancer cell line, HCT116 (5 million cells/site) subcutaneously in the dorsal right flank. The animals were randomized (N=10) into different treatment groups as vehicle control, test compound (300 mg/kg, QD, 150 mg/kg BID, 1000 mg/kg QD and 500 mg/kg BID or capecitabine (1000 mg/kg QD and 500 mg/kg BID) based on the tumor volume, when the subcutaneous tumor reached a volume in the range of 70-137 mm^3.
(§2) The animals in the control group were dosed with the formulation used for test compound, which consisted of 0.5% w/v HPMC+0.5% w/v Tween-80 in purified water (q.s) at the dose volume of […]. The Capecitabine formulation was prepared using 0.5% Hydroxypropyl methylcellulose (HPMC E 15) in 40 mM citrate buffer, pH 6.0 at the dose volume of 10 mL/kg. Treatment to animals was performed initially for ten days dosing followed by 2 off doses days and then continued for another 7 days. […] Tumor growth inhibition (TGI) was calculated based on the tumor volume on a given day as compared to that on day 1. On day 19, blood samples were collected from test compound 1000 mg/kg QD and Capecitabine 1000 mg/kg QD groups at 0 hr; prior to dosing (first dose administration in morning) and at 0.5, 1, 2, 4, 8 and 24 hours post dosing to evaluate the pharmacokinetic parameters of various metabolites (5′-DFCR, 5′-DFUR, 5-Fluorouracil and valproic acid).

[2] = Toxicity profile in the xenograft study (mortality, clinical signs, body weight); assay type: in vivo; details: for Diarrhea / Hunch back / Morality: animals affected/10
Description: as §1, §2

| SMILES | % Tumor Growth Inhibition (% TGI) ([1]; 500 mg/kg BID, day 4) [%] | % Tumor Growth Inhibition (% TGI) ([1]; 500 mg/kg BID, day 6) [%] | % Tumor Growth Inhibition (% TGI) ([1]; 500 mg/kg BID, day 8) [%] | % Tumor Growth Inhibition (% TGI) ([1]; 500 mg/kg BID, day 11) [%] | % Tumor Growth Inhibition (% TGI) ([1]; 500 mg/kg BID, day 13) [%] | % Tumor Growth Inhibition (% TGI) ([1]; 500 mg/kg BID, day 15) [%] | tumor growth inhibition ([1]; 1000 mg/kg QD (once daily)) [%] | % Tumor Growth Inhibition (% TGI) ([1]; 1000 mg/kg QD, day 4) [%] | % Tumor Growth Inhibition (% TGI) ([1]; 1000 mg/kg QD, day 6) [%] | % Tumor Growth Inhibition (% TGI) ([1]; 1000 mg/kg QD, day 8) [%] | % Tumor Growth Inhibition (% TGI) ([1]; 1000 mg/kg QD, day 11) [%] | % Tumor Growth Inhibition (% TGI) ([1]; 1000 mg/kg QD, day 13) [%] | % Tumor Growth Inhibition (% TGI) ([1]; 1000 mg/kg QD, day 15) [%] | other results |
| --- | --- | --- | --- | --- | --- | --- | --- | --- | --- | --- | --- | --- | --- | --- |
| CCCCCOC(=O)Nc1nc(=O)n([C@@H]2O[C@H](C)[C@@H](O)[C@H]2O)cc1F [Capecitabine, reference compound] | 87.0 | 82.9 | 85.8 | 89.3 | 93.6 | 94.1 | 94.1 | 76.8 | 71.5 | 71.7 | 77.2 | 86.9 | 87.6 | tumor growth inhibition ([1]; 500 mg/kg BID): 87.6%; Mean % body weight reduction ([2]; 500 mg/kg BID): −16.8%; Diarrhea ([2]; 500 mg/kg BID): 1/10; Hunch back ([2]; 500 mg/kg BID): 3/10; Morality ([2]; 500 mg/kg BID): 2/10; Mean % body weight reduction ([2]; 1000 mg/kg QD): −24.5%; Diarrhea ([2]; 1000 mg/kg QD): 0/10; Hunch back ([2]; 1000 mg/kg QD): 3/10; Morality ([2]; 1000 mg/kg QD): no mortality and 0/10 |
| CCCC(CCC)C(=O)Nc1nc(=O)n([C@@H]2O[C@H](C)[C@@H](OC(C)=O)[C@H]2OC(C)=O)cc1F [Test Compound, (2R,3R,4R,5R)-2-(5-fluoro-2-oxo-4-(2-propylpentanamido)pyrimidin-1(2H)-yl)-5-methyltetrahydrofuran-3,4-diyl diacetate] | 76.3 | 74.8 | 81.3 | 87.7 | 95.4 | 96.6 | > 90 | 66.0 | 70.5 | 73.3 | 78.4 | 88.1 | 90.9 | % Tumor Growth Inhibition (% TGI) ([1]; 150 mg/kg BID, day 4): 37.4%; % Tumor Growth Inhibition (% TGI) ([1]; 150 mg/kg BID, day 6): 40.2%; % Tumor Growth Inhibition (% TGI) ([1]; 150 mg/kg BID, day 8): 39.2%; % Tumor Growth Inhibition (% TGI) ([1]; 150 mg/kg BID, day 11): 47.6%; % Tumor Growth Inhibition (% TGI) ([1]; 150 mg/kg BID, day 13): 55.7%; % Tumor Growth Inhibition (% TGI) ([1]; 150 mg/kg BID, day 15): 54.7%; % Tumor Growth Inhibition (% TGI) ([1]; 300 mg/kg QD, day 4): 58.8%; % Tumor Growth Inhibition (% TGI) ([1]; 300 mg/kg QD, day 6): 51.0%; % Tumor Growth Inhibition (% TGI) ([1]; 300 mg/kg QD, day 8): 55.5%; % Tumor Growth Inhibition (% TGI) ([1]; 300 mg/kg QD, day 11): 60.7%; % Tumor Growth Inhibition (% TGI) ([1]; 300 mg/kg QD, day 13): 67.2%; % Tumor Growth Inhibition (% TGI) ([1]; 300 mg/kg QD, day 15): 70.4%; antitumor activity of once a day schedule versus twice a day schedule (150 mg/kg BID) ([1]; 300 mg/kg/day once daily): better antitumor activity; antitumor activity against HCT-116 human colon cancer xenografts ([1]; oral gavage, QD and BID dosage regimen): statistically significant, dose dependent tumor growth inhibition; also recorded: statistically significant dose dependent antitumor activity |
